Values of other authors as cited in patent US20070298000A1, “High SPF transparent or translucent naturally derived, cytoprotective, UV radiation resistant compositions” (priority 2006, published 2007).

Columns and labels:
[1] = test system: cancer cells
[2] = test system: uterine wet weight, cell height, cell proliferation; conditions: cell proliferation assays

SMILES | effect on growth of cancer cells / activity in cells [1] | estrogenicity [2]
Cc1ccc(C=C2C(=O)C3(C)CCC2C3(C)C)cc1 (stereo not drawn) [4-methyl-benzylidene camphor, 3-(4-methylbenxylidene) camphor] | made cancer cells grow more rapidly | highly estrogenic
COc1ccc(C(=O)c2ccccc2)c(O)c1 [benzophenone-s] | made cancer cells grow more rapidly | highly estrogenic
CC1CC(OC(=O)c2ccccc2O)CC(C)(C)C1 (stereo not drawn) [homosalate] | made cancer cells grow more rapidly | 
CCCCC(CC)COC(=O)c1ccc(N(C)C)cc1 (stereo not drawn) [octyl-dimethyl-PABA] | made cancer cells grow more rapidly | 
